According to PubChem BioAssay (NCI):
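Five concentrations, 48 hours, 96-well plates. GI50 is the concentration that inhibits growth by half. Definition used: TGI = concentration required for complete inhibition of growth.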

Tests used:
Experiment in all cases: growth of human tumour cells (NCI), 48 h
HL-60(TB) leukemia = test system: HL-60(TB) leukemia
786-0 renal = test system: 786-0 renal
A549 NSCLC = test system: A549 NSCLC
T-47D breast = test system: T-47D breast
HCT-15 colon = test system: HCT-15 colon
SW-620 colon = test system: SW-620 colon
UACC-62 melanoma = test system: UACC-62 melanoma
HCT-116 colon = test system: HCT-116 colon
UO-31 renal = test system: UO-31 renal
HOP-62 NSCLC = test system: HOP-62 NSCLC
SF-295 CNS = test system: SF-295 CNS
U251 CNS = test system: U251 CNS
MDA-MB-231 breast = test system: MDA-MB-231 breast
MDA-MB-435 = test system: MDA-MB-435
NCI-H23 lung = test system: NCI-H23 lung
SK-MEL-2 melanoma = test system: SK-MEL-2 melanoma
A498 renal = test system: A498 renal
NCI-H226 lung = test system: NCI-H226 lung
MOLT-4 leukemia = test system: MOLT-4 leukemia
ACHN renal = test system: ACHN renal
LOX IMVI melanoma = test system: LOX IMVI melanoma
SK-MEL-28 melanoma = test system: SK-MEL-28 melanoma
HT29 colon = test system: HT29 colon
MCF7 breast = test system: MCF7 breast
TK-10 renal = test system: TK-10 renal
SF-539 CNS = test system: SF-539 CNS
SK-MEL-5 melanoma = test system: SK-MEL-5 melanoma
CAKI-1 renal = test system: CAKI-1 renal
PC-3 prostate = test system: PC-3 prostate
OVCAR-3 ovarian = test system: OVCAR-3 ovarian
COLO 205 colon = test system: COLO 205 colon
HS 578T breast = test system: HS 578T breast
OVCAR-8 ovarian = test system: OVCAR-8 ovarian
OVCAR-5 ovarian = test system: OVCAR-5 ovarian
CCRF-CEM leukemia = test system: CCRF-CEM leukemia
SK-OV-3 ovarian = test system: SK-OV-3 ovarian
SN12C renal = test system: SN12C renal
HCC-2998 colon = test system: HCC-2998 colon
OVCAR-4 ovarian = test system: OVCAR-4 ovarian
NCI-H460 lung = test system: NCI-H460 lung
HOP-92 NSCLC = test system: HOP-92 NSCLC
SR leukemia = test system: SR leukemia
EKVX NSCLC = test system: EKVX NSCLC
KM12 colon = test system: KM12 colon
SNB-19 CNS = test system: SNB-19 CNS
NCI/ADR-RES ovarian = test system: NCI/ADR-RES ovarian
MALME-3M melanoma = test system: MALME-3M melanoma
UACC-257 melanoma = test system: UACC-257 melanoma
K-562 leukemia = test system: K-562 leukemia
RPMI-8226 leukemia = test system: RPMI-8226 leukemia
DU-145 prostate = test system: DU-145 prostate
SNB-75 CNS = test system: SNB-75 CNS
SF-268 CNS = test system: SF-268 CNS
BT-549 breast = test system: BT-549 breast

**Q.** `CCN1Cc2nc3sc(C)c(C)c3c(=O)n2C=C1C` was tested. Which GI50 (HL-60(TB) leukemia) did it give?
**A.** 2.1 µM

**Q.** And the TGI (HL-60(TB) leukemia)?
**A.** 6.48 µM

**Q.** What about the GI50 (786-0 renal) of the same compound?
**A.** 16.1 µM

**Q.** What about the TGI (786-0 renal) of the same compound?
**A.** 66.4 µM

**Q.** What about the GI50 (A549 NSCLC) of the same compound?
**A.** 38.5 µM

**Q.** And the TGI (A549 NSCLC)?
**A.** > 100 µM

**Q.** What about the GI50 (T-47D breast) of the same compound?
**A.** 4.17 µM

**Q.** And the TGI (T-47D breast)?
**A.** > 100 µM

**Q.** And the GI50 (HCT-15 colon)?
**A.** 3.5 µM

**Q.** And the TGI (HCT-15 colon)?
**A.** 19 µM

**Q.** What about the GI50 (SW-620 colon) of the same compound?
**A.** 2.75 µM

**Q.** And the TGI (SW-620 colon)?
**A.** 12.6 µM

**Q.** And the GI50 (UACC-62 melanoma)?
**A.** 5.83 µM

**Q.** And the TGI (UACC-62 melanoma)?
**A.** 24.7 µM

**Q.** What about the GI50 (HCT-116 colon) of the same compound?
**A.** 1.72 µM

**Q.** And the TGI (HCT-116 colon)?
**A.** 4.17 µM

**Q.** What about the GI50 (UO-31 renal) of the same compound?
**A.** 5.29 µM

**Q.** What about the TGI (UO-31 renal) of the same compound?
**A.** > 100 µM

**Q.** What about the GI50 (HOP-62 NSCLC) of the same compound?
**A.** 16.4 µM

**Q.** And the TGI (HOP-62 NSCLC)?
**A.** 75.1 µM

**Q.** What about the GI50 (SF-295 CNS) of the same compound?
**A.** 20.2 µM

**Q.** And the TGI (SF-295 CNS)?
**A.** > 100 µM

**Q.** What about the GI50 (U251 CNS) of the same compound?
**A.** 4.23 µM

**Q.** And the TGI (U251 CNS)?
**A.** > 100 µM

**Q.** And the GI50 (MDA-MB-231 breast)?
**A.** 8.14 µM

**Q.** And the TGI (MDA-MB-231 breast)?
**A.** 24.7 µM

**Q.** What about the GI50 (MDA-MB-435) of the same compound?
**A.** 6.48 µM

**Q.** What about the TGI (MDA-MB-435) of the same compound?
**A.** 39.1 µM

**Q.** And the GI50 (NCI-H23 lung)?
**A.** 7.26 µM

**Q.** And the TGI (NCI-H23 lung)?
**A.** > 100 µM

**Q.** What about the GI50 (SK-MEL-2 melanoma) of the same compound?
**A.** 21.1 µM

**Q.** What about the TGI (SK-MEL-2 melanoma) of the same compound?
**A.** > 100 µM

**Q.** And the GI50 (A498 renal)?
**A.** 20.3 µM

**Q.** And the TGI (A498 renal)?
**A.** > 100 µM

**Q.** And the GI50 (NCI-H226 lung)?
**A.** 8.17 µM

**Q.** What about the TGI (NCI-H226 lung) of the same compound?
**A.** 21.9 µM

**Q.** And the GI50 (MOLT-4 leukemia)?
**A.** 2.46 µM

**Q.** And the TGI (MOLT-4 leukemia)?
**A.** 8.7 µM

**Q.** And the GI50 (ACHN renal)?
**A.** 11.5 µM

**Q.** And the TGI (ACHN renal)?
**A.** > 100 µM

**Q.** What about the GI50 (LOX IMVI melanoma) of the same compound?
**A.** 4.64 µM

**Q.** What about the TGI (LOX IMVI melanoma) of the same compound?
**A.** 17.1 µM

**Q.** What about the GI50 (SK-MEL-28 melanoma) of the same compound?
**A.** 6.65 µM

**Q.** What about the TGI (SK-MEL-28 melanoma) of the same compound?
**A.** 21.3 µM

**Q.** What about the GI50 (HT29 colon) of the same compound?
**A.** 3.9 µM

**Q.** And the TGI (HT29 colon)?
**A.** 15.8 µM

**Q.** And the GI50 (MCF7 breast)?
**A.** 3.94 µM

**Q.** What about the TGI (MCF7 breast) of the same compound?
**A.** 53.3 µM

**Q.** And the GI50 (TK-10 renal)?
**A.** 15.1 µM

**Q.** What about the TGI (TK-10 renal) of the same compound?
**A.** 83.4 µM

**Q.** And the GI50 (SF-539 CNS)?
**A.** 12.9 µM

**Q.** What about the TGI (SF-539 CNS) of the same compound?
**A.** 34.4 µM

**Q.** And the GI50 (SK-MEL-5 melanoma)?
**A.** 5.87 µM

**Q.** What about the TGI (SK-MEL-5 melanoma) of the same compound?
**A.** 51.8 µM

**Q.** What about the GI50 (CAKI-1 renal) of the same compound?
**A.** 11.2 µM

**Q.** And the TGI (CAKI-1 renal)?
**A.** 53.5 µM

**Q.** What about the GI50 (PC-3 prostate) of the same compound?
**A.** 4.07 µM

**Q.** And the TGI (PC-3 prostate)?
**A.** > 100 µM

**Q.** And the GI50 (OVCAR-3 ovarian)?
**A.** 2.75 µM

**Q.** And the TGI (OVCAR-3 ovarian)?
**A.** 9.74 µM

**Q.** What about the GI50 (COLO 205 colon) of the same compound?
**A.** 24.4 µM

**Q.** And the TGI (COLO 205 colon)?
**A.** > 100 µM

**Q.** What about the GI50 (HS 578T breast) of the same compound?
**A.** 1.66 µM

**Q.** And the TGI (HS 578T breast)?
**A.** 6.92 µM

**Q.** What about the GI50 (OVCAR-8 ovarian) of the same compound?
**A.** 4.83 µM

**Q.** What about the TGI (OVCAR-8 ovarian) of the same compound?
**A.** 25.3 µM

**Q.** What about the GI50 (OVCAR-5 ovarian) of the same compound?
**A.** 42.3 µM

**Q.** What about the TGI (OVCAR-5 ovarian) of the same compound?
**A.** > 100 µM

**Q.** And the GI50 (CCRF-CEM leukemia)?
**A.** 2.52 µM

**Q.** What about the TGI (CCRF-CEM leukemia) of the same compound?
**A.** 8.21 µM

**Q.** And the GI50 (SK-OV-3 ovarian)?
**A.** 74.1 µM

**Q.** What about the TGI (SK-OV-3 ovarian) of the same compound?
**A.** > 100 µM

**Q.** What about the GI50 (SN12C renal) of the same compound?
**A.** 13.8 µM

**Q.** What about the TGI (SN12C renal) of the same compound?
**A.** 62.1 µM

**Q.** And the GI50 (HCC-2998 colon)?
**A.** 5.19 µM

**Q.** What about the TGI (HCC-2998 colon) of the same compound?
**A.** 37.8 µM

**Q.** What about the GI50 (OVCAR-4 ovarian) of the same compound?
**A.** 11.8 µM

**Q.** What about the TGI (OVCAR-4 ovarian) of the same compound?
**A.** > 100 µM

**Q.** And the GI50 (NCI-H460 lung)?
**A.** 40.6 µM

**Q.** What about the TGI (NCI-H460 lung) of the same compound?
**A.** > 100 µM

**Q.** And the GI50 (HOP-92 NSCLC)?
**A.** 6.2 µM

**Q.** And the TGI (HOP-92 NSCLC)?
**A.** 46.4 µM

**Q.** What about the GI50 (SR leukemia) of the same compound?
**A.** 1.58 µM

**Q.** And the TGI (SR leukemia)?
**A.** 8.49 µM

**Q.** And the GI50 (EKVX NSCLC)?
**A.** 21.8 µM

**Q.** And the TGI (EKVX NSCLC)?
**A.** > 100 µM

**Q.** And the GI50 (KM12 colon)?
**A.** 2.8 µM

**Q.** What about the TGI (KM12 colon) of the same compound?
**A.** 14.4 µM

**Q.** And the GI50 (SNB-19 CNS)?
**A.** 17.9 µM

**Q.** What about the TGI (SNB-19 CNS) of the same compound?
**A.** > 100 µM

**Q.** What about the GI50 (NCI/ADR-RES ovarian) of the same compound?
**A.** 5.12 µM

**Q.** What about the TGI (NCI/ADR-RES ovarian) of the same compound?
**A.** 79.6 µM

**Q.** And the GI50 (MALME-3M melanoma)?
**A.** 16.4 µM

**Q.** And the TGI (MALME-3M melanoma)?
**A.** 73.5 µM

**Q.** And the GI50 (UACC-257 melanoma)?
**A.** 4.56 µM

**Q.** And the TGI (UACC-257 melanoma)?
**A.** 17.6 µM

**Q.** And the GI50 (K-562 leukemia)?
**A.** 3.35 µM

**Q.** And the TGI (K-562 leukemia)?
**A.** 17.8 µM

**Q.** What about the GI50 (RPMI-8226 leukemia) of the same compound?
**A.** 2.64 µM

**Q.** And the TGI (RPMI-8226 leukemia)?
**A.** 10.9 µM

**Q.** What about the GI50 (DU-145 prostate) of the same compound?
**A.** 7.7 µM

**Q.** What about the TGI (DU-145 prostate) of the same compound?
**A.** 23 µM

**Q.** What about the GI50 (SNB-75 CNS) of the same compound?
**A.** 10.2 µM

**Q.** What about the TGI (SNB-75 CNS) of the same compound?
**A.** > 100 µM

**Q.** What about the GI50 (SF-268 CNS) of the same compound?
**A.** 5.41 µM

**Q.** And the TGI (SF-268 CNS)?
**A.** 36.2 µM

**Q.** What about the GI50 (BT-549 breast) of the same compound?
**A.** 7.36 µM

**Q.** What about the TGI (BT-549 breast) of the same compound?
**A.** 92.1 µM
